Measured values as given in US20140228329A1, “USE OF 25-HYDROXY VITAMIN D3 TO PROMOTE PHOSPHOROUS UTILISATION IN RUMINANTS” (DSM IP ASSETS B.V., priority 2011, published 2014).

Experiments:
cattle [1] = experiment: Low Phosphorous diet experiment in cattle: blood plasma phosphorous concentration; type: in vivo; conditions: cattle on low Phosphorous roughage diet, 2,000 μg 25-hydroxy-vitamin D3 per head/day vs control diet; measured after 1, 11, 12, 13 and 14 days; effect at least after 10 days (FIG. 1)
Procedure: (§1) In an experimental cattle farm, two groups of animals were selected for the following experiment with a low Phosphorous diet.
(§2) One group received the control diet which was the standard roughage diet without the supplementation of 25-hydroxy-vitamin D3. The other group received the experimental diet which was the standard roughage diet supplemented with 2,000 μg 25-hydroxy-vitamin D3 per head/day
After 1, 11, 12, 13 and 14 days the blood plasma concentration of phosphorous was measured by standard method.

cattle [2] = experiment: Low Phosphorous diet experiment in cattle: phosphorous in diet, faeces and urine (P balance); type: in vivo
Procedure: as §1, §2
Additionally the phosphorous concentration in g/day was measured or/calculated in the diet, faeces and urine.

[3] = low Phosphorous roughage diet, 2,000 μg 25-hydroxy-vitamin D3 per head/day, NS vs control
[4] = low Phosphorous roughage diet, 2,000 μg 25-hydroxy-vitamin D3 per head/day, P < 0.05 vs control

C=C1CC[C@H](O)C/C1=C/C=C1\CCC[C@]2(C)[C@@H]([C@H](C)CCCC(C)(C)O)CC[C@@H]12 [25OH-D3, 25-hydroxy vitamin D3]
phosphorous concentration in blood plasma (cattle [1]): significant increase
P excretion by the animal (cattle [2]; low Phosphorous diet, after 25-OH D3 supplementation vs control): significant decrease
P (g/day) Feed (cattle [2]; [3]): 26.36 g/day
P (g/day) Urine (cattle [2]; [3]): 1.12 g/day
P (g/day) Faeces (cattle [2]; [4]): 17.21 g/day
P (g/day) Retained (cattle [2]; [4]): 8.03 g/day
